Source: patent publication US6825209B2, “Compounds having unique CB1 receptor binding selectivity and methods for their production and use” (Research Triangle Institute, priority 2002, dated 2004)
Read-outs that look alike come from different tables or passages of the source.

How the values were obtained:
[1] = molecular target: T1, G-protein-linked cannabinoid receptors (Rattus norvegicus, UniProt P20272); experiment: GTP-γ-[35S] binding in whole rat brain; type: biochemical; conditions: for Emax: read-out: Emax, GTP-γ-[35S] in Whole Rat Brain; for EC50: inverse agonist/antagonist activity
T1 construct: tissue Charles River or Pel-Freez Biologicals; host or cells: whole rat brain crude membrane homogenate
Description: Cannabinoid receptor-mediated alteration in GTP-γ-[^35S] binding.
Introduction. The purpose of this assay was to characterize the functional activity of lead compounds identified by the radioligand competition binding assays described above. Data from the GTP-γ-[^35S] binding assay was used to determine if a compound was an agonist, antagonist or inverse agonist at G-protein-linked cannabinoid receptors. Agonist binding to a G-protein-linked receptor results in an increased affinity of the G-protein α-subunit for GTP relative to GDP. Eventually, an active αGTP complex forms to complete the stimulus-effector coupling. The α-subunit has intrinsic GTPase activity which generates a free α-subunit which can recombine with the β- and γ-subunits readying the G-protein for another signal transduction cycle. In the current assay, GTP-γ-[^35S] cannot be hydrolyzed by the α-subunit. Thus, the amount of bound GTP-γ-[^35S] is a marker for G-protein activation. In this assay, an agonist increases basal GTP-γ-[^35S] binding, an inverse agonist decreases basal binding and basal binding would be unaffected by an antagonist.
Experimental Design. The specific binding of GTP-γ-[^35S], in the absence of test compound, was termed “basal” activity. Test compounds were characterized as agonist, antagonist, or inverse agonist based on their effect on basal activity. […] The concentrations spanned two orders of magnitude because affinity may not be related to efficacy. […] Effects of the test compounds are reported as the percent change from basal. More thorough dose-response analysis may be run to determine, for example, if a compound is a full or partial agonist.
Methods. […] In a final volume of 0.5 mL, each assay tube contained: 0.02 mg crude membrane homogenate (0.1 mL), 200 μM GDP (0.05 mL; to reduce basal G-protein activity), 0.1 nM GTP-γ-[^35S] (0.05 mL) and several concentrations of test compound (0.05 mL) or an equivalent volume of vehicle (used for determination of total binding). Nonspecific binding was determined in the presence of 100 μM unlabeled GTP-γ-S (0.05 mL). Duplicate samples were incubated for 1 h at 30° C. Since this assay is amenable for use with high throughput screening methods, the binding assays were run using a 96-well plate format. Specific binding was calculated as total binding-nonspecific binding.

human CB1 receptor = molecular target: T2, human CB1 receptor (Homo sapiens, UniProt P21554); experiment: Radioligand displacement in human CB1 receptor-transfected cells (HEK-293); type: binding
T2 construct: expressed in transfected cells; host or cells: HEK-293
Method in brief: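 Radioligand displacement was run on HEK-293 cells expressing human CB1, with incubation and separation as for rat brain membranes. IC50 values came from one- or two-site nonlinear regression and were converted to Ki by Cheng-Prusoff.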

[2] = whole rat brain membranes, effects reported as percent change from basal
[3] = whole rat brain membranes, read-out: EC50, GTP-γ-[35S] in Whole Rat Brain
[4] = displacement of 3H-CP55940, human CB1 transfected cells, radioligand 3H-CP55940, Table 3
[5] = displacement of 3H-SR141716A, human CB1 transfected cells, radioligand 3H-SR141716A, Table 3
[6] = displacement of 3H-WIN55212-2, human CB1 transfected cells, radioligand 3H-WIN55212-2, Table 3
[7] = human CB1 transfected cells, radioligand 3H-CP55940, Table 3
[8] = human CB1 transfected cells, radioligand 3H-SR141716A, Table 3
[9] = human CB1 transfected cells, radioligand 3H-WIN55212-2, Table 3

T2 sequence (P21554 whole entry): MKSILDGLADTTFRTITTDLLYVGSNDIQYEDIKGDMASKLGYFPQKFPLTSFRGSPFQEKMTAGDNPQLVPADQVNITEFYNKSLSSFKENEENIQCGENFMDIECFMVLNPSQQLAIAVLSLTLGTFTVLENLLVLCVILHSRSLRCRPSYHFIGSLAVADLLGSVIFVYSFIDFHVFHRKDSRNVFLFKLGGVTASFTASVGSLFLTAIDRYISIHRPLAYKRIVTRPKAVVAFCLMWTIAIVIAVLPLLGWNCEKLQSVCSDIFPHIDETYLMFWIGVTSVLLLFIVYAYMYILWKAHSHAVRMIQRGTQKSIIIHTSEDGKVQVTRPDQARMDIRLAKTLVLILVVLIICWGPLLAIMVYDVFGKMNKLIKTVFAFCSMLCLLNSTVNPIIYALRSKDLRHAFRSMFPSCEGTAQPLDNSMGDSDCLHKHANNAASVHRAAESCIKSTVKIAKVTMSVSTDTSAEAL
T1 sequence (P20272 whole entry): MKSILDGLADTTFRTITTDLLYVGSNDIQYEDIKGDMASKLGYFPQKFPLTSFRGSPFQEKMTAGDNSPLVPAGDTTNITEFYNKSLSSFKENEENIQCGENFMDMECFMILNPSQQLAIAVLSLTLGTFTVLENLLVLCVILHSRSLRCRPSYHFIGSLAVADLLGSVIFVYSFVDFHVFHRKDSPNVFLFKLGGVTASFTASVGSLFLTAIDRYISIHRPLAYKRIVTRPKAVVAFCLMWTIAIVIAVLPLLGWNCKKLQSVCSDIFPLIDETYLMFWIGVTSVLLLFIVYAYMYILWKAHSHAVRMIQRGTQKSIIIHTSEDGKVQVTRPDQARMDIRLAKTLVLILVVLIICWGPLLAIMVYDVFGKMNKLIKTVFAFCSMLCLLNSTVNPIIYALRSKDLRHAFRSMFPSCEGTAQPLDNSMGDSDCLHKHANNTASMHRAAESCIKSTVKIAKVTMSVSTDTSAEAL

Row | SMILES | Emax [1, 2] [%] | EC50 [1, 3] [nM] | Ki (human CB1 receptor; [4]) [nM] | Ki (human CB1 receptor; [5]) [nM] | Ki (human CB1 receptor; [6]) [nM] | Max. Disp. %, 3H-CP55940 (human CB1 receptor; [7]) [%] | Max. Disp. %, 3H-SR141716A (human CB1 receptor; [8]) [%] | Max. Disp. %, 3H-WIN55212-2 (human CB1 receptor; [9]) [%] | Max. Disp. %, 3H-CP55940 (human CB1 receptor) [%] | Max. Disp. %, 3H-SR141716A (human CB1 receptor) [%] | Max. Disp. %, 3H-WIN55212-2 (human CB1 receptor) [%] | Ki (human CB1 receptor; displacement of 3H-CP55940) [nM] | Ki (human CB1 receptor; displacement of 3H-SR141716A) [nM] | Ki (human CB1 receptor; displacement of 3H-WIN55212-2) [nM] | EC50 ([1]; EC50, GTP-γ-[35S] in Whole Rat Brain, whole rat brain membranes) [nM] | Emax [1] [%]
1 | Cc1c(C(=O)NN2CCOCC2)nn(-c2ccc(Cl)cc2Cl)c1-c1ccc(Cl)cc1 [MF9725-33D] | -76.3 | 38900 |  |  |  |  |  |  |  |  |  |  |  |  |  | 
2 | CCCCNC(=O)c1nn(-c2ccc(Cl)cc2Cl)c(-c2ccc(Cl)cc2)c1C [MF9725-64-17] | -38.5 | 8540 | 28 | 4.79 | 29.8 | 90.2 | 97.4 | 93.2 |  |  |  |  |  |  |  | 
3 | Cc1c(C(=O)NC(C)C)nn(-c2ccc(Cl)cc2Cl)c1-c1ccc(Cl)cc1 [MF9725-65-11] | -46.4 | 16000 | 91 | 14.4 | 692 | 85.4 | 100 | 93.6 |  |  |  |  |  |  |  | 
4 | Cc1c(C(=O)NC2CCCCC2)nn(-c2ccc(Cl)cc2Cl)c1-c1ccc(Cl)cc1 [MF9725-66-11] | -22.1 | 26000 | 7.06 | 1.02 | 5.36 | 92.3 | 99.9 | 96.8 |  |  |  |  |  |  |  | 
5 | Cc1c(C(=O)NCC(C)C)nn(-c2ccc(Cl)cc2Cl)c1-c1ccc(Cl)cc1 [MF9725-68-10] | -11 | 7540 | 93.6 | 14.3 | 127 | 70.1 | 99.5 | 100 |  |  |  |  |  |  |  | 
6 | CCCCCCNC(=O)c1nn(-c2ccc(Cl)cc2Cl)c(-c2ccc(Cl)cc2)c1C [MF9725-132-25] | -13 | 29400 | 124 | 23.5 | 85.4 | 85.6 | 75.4 | 52.7 |  |  |  |  |  |  |  | 
7 | CCCCCCCNC(=O)c1nn(-c2ccc(Cl)cc2Cl)c(-c2ccc(Cl)cc2)c1C [MF9725-133-25] |  |  |  |  |  |  |  |  | 85.3 | 67.9 | 53.4 | 29.1 | 9.3 | 393 | 213000 | -20
